≈ marks a conversion by molar mass, not a printed value.
How the values were obtained:
[1] = system: promastigotes of L. (V.) braziliensis; parameters: method as in earlier work; conditions: cited from earlier work
[2] = system: promastigotes of L. (L.) amazonensis; parameters: method as in earlier work; conditions: cited from earlier work
[3] = system: intracellular amastigotes of L. (L.) amazonensis; test: In vitro antiamastigote activity in infected THP1-derived macrophages; format: cell-based, Leishmania (Leishmania) amazonensis; conditions: for SI (selectivity index, ratio CC50 THP1/IC50 Leishmania): CC50 THP1/IC50 intracellular amastigotes; for SI (selectivity index, ratio CC50 THP1/IC50 Leishmania) / IC50: 48 h; for IC50: Leishmania amazonensis, Macrophage; for IC50 / Intracellular Amastigotes IC50: macrophages infected with L. (L.) amazonensis, 48 h of treatment, 34 °C
Procedure: THP1 cells (2 × 10^5/mL) were differentiated to macrophages with 10 ng/mL of phorbol myristate acetate and placed in Lab-Tek eight chamber slides for 24 h at 37 °C in a 5% CO2 95% air mixture. Adherent macrophages were infected with L. (L.) amazonensis at a ratio of four parasites per macrophage and incubated at 34 °C in a 5% CO2 95% air mixture during 24 h. After infection, the cells were washed with pre-warmed PBS to remove free parasites. A new medium with different concentrations of EGCG, EGC, GCG and GC (2.3 to 130 µg/mL) and Gl (2.5 to 80 µg Sb^v/mL) was added to each well. The positive controls were infected cells cultured under the presence of complete RPMI-1640 medium. The chambers were returned to the CO2 incubator for an additional 48 h at 34 °C, 5% CO2 [17]. The cells were stained with Diff Quik (Biopur S.R.L., Rosario, Argentina), and the results were expressed as the concentration of compound to inhibit the 50% of the growth (IC50) of the intracellular amastigotes.
(§1) The GraphPad Prism 5.0 software (GraphPad Software Inc., San Diego, CA, USA) was employed to carry out calculations of the IC50 and CC50 values by a nonlinear regression. Multiple comparisons of lesions’ sizes between groups were made with a one-way analysis of variance (ANOVA) followed by Tukey test. The statistical analysis of the parasite burden data obtained by the limiting dilution assay was done using ELIDA software, which analyses data through the Poisson distribution and by the X^2 test. p < 0.05 was considered significant. The data are representative of two separate experiments in vivo.

[4] = Macrophage cytotoxicity screening (MTT assay); format: cell-based; conditions: human, THP1 cells differentiated to macrophages
Procedure: The cytotoxicity of EGCG, EGC, GCG and GC was evaluated in a human monocytic cell line derived from an acute monocytic leukemia patient (THP1). The cells (3 x 10^4/150 µL) were first differentiated to macrophages with 10 ng/mL of phorbol myristate acetate for 24 h at 37 °C in a 5% CO2 95% air mixture. […] The controls were incubated with RPMI 1640 medium (Gibco, Grand Island, NY, USA). The viability of the macrophages was determined by the MTT assay (Nacalai tesque, Kyoto, Japan). Briefly, 50 μL of MTT (2 mg/mL) was added to each well and, after 4 h of incubation at 37 °C, the reaction was stopped dissolving the formazan crystals with 100 μL/well of dimethyl sulfoxide (DMSO). The relative amount of formazan produced by viable macrophages was determined using a spectrophotometer at 570 nm. The percentage of viable cells was calculated according to the formula: OD treated culture–OD blank x 100/OD control–OD blank as was described previously. The CC50 was calculated for each compound as the concentration of compound that reduces cell growth by 50%.
as §1

L. (V.) braziliensis = system: L. (V.) braziliensis; parameters: method as in PMID 24106750, PMID 22735546; conditions: EGCG oral treatment, BALB/c mice; cited from earlier work
[5] = system: intracellular amastigotes of L. (V.) braziliensis; parameters: method as in PMID 25144225; conditions: infected macrophage cultures incubated at 37 °C; cited from earlier work
[6] = system: intracellular amastigotes of L. (L.) amazonensis; parameters: method as in PMID 22735546; conditions: infected macrophage cultures incubated at 37 °C; cited from earlier work
L. (L.) donovani = system: L. (L.) donovani; parameters: method as in PMID 16569852; conditions: cited from earlier work
L. (L.) amazonensis = test: In vivo cutaneous leishmaniasis model, infected ear dermis of BALB/c mice; conditions: 18 days; for Parasite burden inhibition: once a day, six times a week, from week six postinfection, vs control group; for Lesion size: week 10, vs control group, p < 0.05
Procedure: Female BALB/c mice of six weeks old (weight, 20 to 25 g) were randomly separated into three groups of five animals and were inoculated by intradermal via in their right ear with 5 × 10^3 (20 µL) infective promastigotes of L. (L.) amazonensis (late log phase of growth). The animals were housed in groups of five in metal cages under a controlled environmental condition (12:12 h light/dark cycle and 23 °C room temperature) with food and water ad libitum.
At week six postinfection, mice received the treatments as follow: group 1, treated with EGCG in USP hydrophilic ointment (15%), group 2, treated with 120 mg Sb^v/kg/d of Gl administered by intraperitoneal route, and group 3, control mice (without treatment). EGCG was uniformly mixed in USP hydrophilic cream (Yoshida Pharmaceutical Co., Saitama, Japan) (15% w/w) and was topically applied (20 mg/lesion). EGCG ointment was prepared daily. The treatments were given during 18 days, once a day, six times a week, until the end of the treatments (9th week). The efficacy of treatments was determined by measuring the lesions’ sizes (mm^2) with a digital caliper weekly (150 mm; Digimess) and by quantifying the parasite burden with the limit dilution assay as was described previously.
as §1

[7] = intraperitoneal 120 mg Sb^v/kg/d

Molecule	Leishmanicidal activity / growth of promastigotes [1]	Leishmanicidal activity / growth of promastigotes [2]	SI (selectivity index, ratio CC50 THP1/IC50 Leishmania) [3]	IC50 [3] [mg/L]	CC50 at 48 h [4] [mg/L]	further results
Oc1cc(O)c2c(c1)O[C@H](c1ccc(O)c(O)c1)[C@@H](O)C2 [(+)-catechin]	did not inhibit the growth	did not inhibit the growth				
O=C(O[C@@H]1Cc2c(O)cc(O)cc2O[C@H]1c1ccc(O)c(O)c1)c1cc(O)c(O)c(O)c1 [(−)-catechin gallate]	did not inhibit the growth	did not inhibit the growth				
Oc1cc(O)c2c(c1)O[C@H](c1ccc(O)c(O)c1)[C@H](O)C2 [(−)-epicatechin]	did not inhibit the growth	did not inhibit the growth				
Oc1cc(O)c2c(c1)O[C@H](c1cc(O)c(O)c(O)c1)[C@H](O)C2 [EGC, (−)-epigallocatechin]	leishmanicidal activity	leishmanicidal activity	≥2.7	< 59.6	121 ± 20 (≈ 394 µM)	SI (selectivity index, ratio CC50 THP1/IC50 Leishmania) ([3]; listed as (−)-epigallocatechin): > 1; Intracellular Amastigotes IC50 [3]: ≥44.3 mg/L
O=C(O[C@@H]1Cc2c(O)cc(O)cc2O[C@@H]1c1cc(O)c(O)c(O)c1)c1cc(O)c(O)c(O)c1 [EGCG, (−)-Epigallocatechin gallate]	leishmanicidal activity	leishmanicidal activity	1.5	< 59.6	88.9 ± 21.9 (≈ 194 µM)	Parasite burden inhibition (L. (V.) braziliensis): 92.1%; IC50 against intracellular amastigotes [5]: 1.57 mg/L (≈ 3.43 µM); SI (selectivity index, ratio CC50 THP1/IC50 Leishmania) ([3]; listed as (−)-Epigallocatechin gallate): > 1; Intracellular Amastigotes IC50 [3]: 59.6 ± 9.3 mg/L; IC50 against intracellular amastigotes [6]: 0.74 mg/L (≈ 1.61 µM); IC50 against L. (L.) donovani (L. (L.) donovani): 19.1 mg/L (≈ 41.7 µM); Parasite burden inhibition (L. (L.) amazonensis; topical 15% EGCG in USP hydrophilic ointment, 20 mg/lesion): 80.4%; Lesion size (L. (L.) amazonensis; topical 15% EGCG): significant reduction of the lesion size
Oc1cc(O)c2c(c1)O[C@@H](c1cc(O)c(O)c(O)c1)[C@H](O)C2 [GC, (−)-gallocatechin]	leishmanicidal activity	leishmanicidal activity	1.2	93.5 ± 5 (≈ 305 µM)	115 ± 37.1 (≈ 376 µM)	
O=C(O[C@@H]1Cc2c(O)cc(O)cc2O[C@H]1c1cc(O)c(O)c(O)c1)c1cc(O)c(O)c(O)c1 [GCG, (−)-gallocatechin gallate]	leishmanicidal activity	leishmanicidal activity	1.4	67.5 ± 9.5 (≈ 147 µM)	94.9 ± 11.8 (≈ 207 µM)	IC50 against L. (L.) donovani (L. (L.) donovani): 8.9 mg/L (≈ 19.4 µM)
Meglumine antimoniate [reference compound]						Parasite burden inhibition (L. (L.) amazonensis; [7]): 85.1%; Lesion size (L. (L.) amazonensis; [7]): reduced the lesion size
